# In patent publication US20160115540A1, “PRODRUGS AND DRUGS” (Biogen MA Inc., priority 2013, published 2016):
# Counter-ions that a name gives are not always drawn.
# Test system: blood and tissues
# Assay: Transcriptional profiling, acute (single) dosing, EAE mice: blood and tissues
# Format: in vivo
# Excerpt: EAE induction is generally performed by immunization with brain extracts, CNS proteins (such as myelin basic protein), or peptides from such protein emulsified in an adjuvant such as complete Freund's adjuvant, e.g., as described in Linker et al., Brain. 2011 March 134(Pt3): 678-92. […] FIG. 17 depicts exemplary immunophenotyping panels used to analyze various immune cell populations (e.g., T cells, T regulatory cells, NK cells, B cells, myeloid cells). […] The number of independent mice whose tissues were harvested for transcript profiling studies and whose data passed QC is shown in TABLE 15. Animals were exposed to CO2 and whole blood collected via cardiac puncture. Two 100 μl aliquots of whole blood were collected in 1.5 mL microcentrifuge tubes and snap frozen in liquid nitrogen. Peripheral (liver, spleen, kidney and jejunum) and CNS brain (cerebellum, hippocampus, striatum and cortex) tissues were harvested and snap frozen in liquid nitrogen, with special care taken to collect tissues of similar size and from the same location. All samples were stored at -80° C. until RNA extraction was conducted. For RNA preparation, frozen tissues were placed in 2 mL RNAse-free 96-well blocks with 1.5 mL QIAzol Lysis Reagent (QIAgen) and a 3.2 mm stainless steel bead (BioSpec Products, Bartlesville, Okla.). Tissues were disrupted for four cycles of 45 seconds in a Mini-Beadbeater (Biospec Products). RNA was extracted in chloroform and the aqueous phase was mixed with an equal volume of 70% ethanol. Extracted RNA was applied to RNeasy 96 plates and purified by the spin method according to the manufacturer's protocol (RNeasy 96 Universal Tissue Protocol, QIAgen, Hilden Germany). 50 ul of snap frozen mouse blood was re-suspended in lysis buffer with proteinase K and arrayed into deep-well plates for automated RNA extraction. RNA extractions were completed on […] (Beckman Coulter, Indianapolis, Ind.) using Agencourt RNAdvance Blood kit (Part number A35604) according to the manufacturer's specifications. RNA integrity was assessed using the HT RNA reagent kit (Part number 760410, Caliper Life Sciences, Hopkinton, Mass.) using a LabChip GX (PerkinElmer, Waltham, Mass.). RNA samples with a RQS score of >8.0 were considered high quality for downstream microarray processing. […] Washing and staining of the hybridized arrays were completed as described in the GeneChip Expression analysis technical manual for HT plate arrays using the Genechip® Array Station (Affymetrix, Santa Clara, Calif.) with modifications as described in […] et al. The processed GeneChip® plate arrays were scanned using GeneTitan scanner (Affymetrix, Santa Clara, Calif.). Affymetrix scans were subject to quality control (QC) measures. These tests included a visual inspection of the distribution of raw signal intensities and an assessment of RNA degradation, relative log expression (RLE), and normalized unscaled standard error (NUSE). All sample scans that passed these QC metrics were included in the analysis. […] Nucleic Acids Res 2003; 31:e15; Li C, et al. Genome Biol 2001; 2:[…]0032). […] Stat Appl Genet Mol Biol 2004; 3:Article3). […] Springer Science+Business Media 2005). […] Generally, no distinct sample groupings were apparent from this analysis; however, in the following cohorts, differences in EAE severity across the mice were manifest in global gene expression patterns: An example of this animal grouping is shown in FIG. 33 for the spinal cord from the chronically-dosed 7 h EAE mice. […] Three distinct groups of mice result from unsupervised clustering, and these animal groups correlate with the cumulative EAE score. […] Subsequent analyses for the cohorts listed above only included those animals with the most severe EAE scores; however, for the cohorts 'Spinal Cord, Acute Dosing, 7 h' and 'Spleen, Acute Dosing, 12 h,' there were an insufficient number of mice in the different treatment groups to perform such a sub-analysis. […]
# [1] = EAE, Acute Dosing, 90 mpk MMF-vs-Vehicle, 7 h after last dosing
# [2] = EAE, Acute Dosing, 90 mpk MMF-vs-Vehicle, 12 h after last dosing
# [3] = lymph node, 100MMF-vs-Veh, 12 h
smiles,measurement,setting,value
"COC(=O)/C=C/C(=O)O [MMF, monomethyl fumarate]",Number of differentially expressed genes identified: Brain,[1],0
same,Number of differentially expressed genes identified: Cerebellum,[1],1
same,Number of differentially expressed genes identified: Lymph Node,[1],6
same,Number of differentially expressed genes identified: Spleen,[1],114
same,Number of differentially expressed genes identified: Whole blood,[1],6
same,Number of differentially expressed genes identified: Brain,[2],0
same,Number of differentially expressed genes identified: Cerebellum,[2],1
same,Number of differentially expressed genes identified: Lymph Node,[2],4
same,Number of differentially expressed genes identified: Spinal Cord,[2],1
same,Number of differentially expressed genes identified: Whole blood,[2],7
same,FC 5830436I19Rik 1437136_PM_at,"cerebellum, 100MMF-vs-Veh, 12 h",1.87
same,FC 1446570_PM_at,"cerebellum, 100MMF-vs-Veh, 7 h",1.51
same,FC Aox1 (1419435_PM_at),"lymph node, 100MMF-vs-Veh, 7 h",2.17
same,FC F3 1417408_PM_at,"lymph node, 100MMF-vs-Veh, 7 h",1.57
same,FC Gclm 1439050_PM_at,"lymph node, 100MMF-vs-Veh, 7 h",1.50
same,FC Nqo1 (1423627_PM_at),"lymph node, 100MMF-vs-Veh, 7 h",1.98
same,FC Srxn1 (1419942_PM_at),"lymph node, 100MMF-vs-Veh, 7 h",1.65
same,FC Srxn1 (1426875_PM_s_at),"lymph node, 100MMF-vs-Veh, 7 h",1.61
same,FC 1446567_PM_at,[3],1.74
same,FC 1457549_PM_at,[3],1.67
same,FC 4930453J04Rik 1454406_PM_at,[3],1.76
same,FC 5830436I19Rik 1437136_PM_at,[3],1.65
same,FC 1445562_PM_at,"spinal cord, 100MMF-vs-Veh, 12 h",2.11
same,FC 1190002H23Rik 1438511_PM_a_at,"spleen, 100MMF-vs-Veh, 7 h",1.60
same,FC 1438259_PM_at,"spleen, 100MMF-vs-Veh, 7 h",1.56
same,FC 1443364_PM_at,"spleen, 100MMF-vs-Veh, 7 h",1.88
same,FC 1443911_PM_at,"spleen, 100MMF-vs-Veh, 7 h",1.54
same,FC 1444212_PM_at,"spleen, 100MMF-vs-Veh, 7 h",1.54
same,FC 1446234_PM_at,"spleen, 100MMF-vs-Veh, 7 h",1.50
same,FC 1447706_PM_at,"spleen, 100MMF-vs-Veh, 7 h",1.57
same,FC 1451626_PM_x_at,"spleen, 100MMF-vs-Veh, 7 h",1.60
same,FC 1452426_PM_x_at,"spleen, 100MMF-vs-Veh, 7 h",1.58
same,FC 1458296_PM_at,"spleen, 100MMF-vs-Veh, 7 h",1.79
same,FC 1458586_PM_at,"spleen, 100MMF-vs-Veh, 7 h",1.50
same,FC 2410129H14Rik 1434664_PM_at,"spleen, 100MMF-vs-Veh, 7 h",1.74
same,FC 2410129H14Rik 1455052_PM_a_at,"spleen, 100MMF-vs-Veh, 7 h",1.56
same,FC 2610021A01Rik 1438786_PM_a_at,"spleen, 100MMF-vs-Veh, 7 h",1.55
same,FC 4732418C07Rik 1446425_PM_at,"spleen, 100MMF-vs-Veh, 7 h",1.53
same,FC 5730508B09Rik 1447100_PM_s_at,"spleen, 100MMF-vs-Veh, 7 h",1.91
same,FC AI662270 1434067_PM_at,"spleen, 100MMF-vs-Veh, 7 h",1.52
same,FC Abi1 1438506_PM_s_at,"spleen, 100MMF-vs-Veh, 7 h",1.61
same,FC Aco1 (1456728_PM_x_at),"spleen, 100MMF-vs-Veh, 7 h",1.69
same,FC Acp1 1422716_PM_a_at,"spleen, 100MMF-vs-Veh, 7 h",1.80
same,FC Adk 1438292_PM_x_at,"spleen, 100MMF-vs-Veh, 7 h",1.54
same,FC Ampd3 1422573_PM_at,"spleen, 100MMF-vs-Veh, 7 h",1.61
same,FC Apol9a /// Apol9b 1424518_PM_at,"spleen, 100MMF-vs-Veh, 7 h",1.57
same,FC Arhgap21 1428369_PM_s_at,"spleen, 100MMF-vs-Veh, 7 h",1.57
same,FC Arl4a 1435092_PM_at,"spleen, 100MMF-vs-Veh, 7 h",2.26
same,FC Arl6ip6 1424020_PM_at,"spleen, 100MMF-vs-Veh, 7 h",1.52
same,FC B3galnt2 1454842_PM_a_at,"spleen, 100MMF-vs-Veh, 7 h",1.51
same,FC Birc6 1442959_PM_at,"spleen, 100MMF-vs-Veh, 7 h",1.54
same,FC C79407 1434767_PM_at,"spleen, 100MMF-vs-Veh, 7 h",1.95
same,FC C1d 1416886_PM_at,"spleen, 100MMF-vs-Veh, 7 h",1.52
same,FC C330027C09Rik 1449699_PM_s_at,"spleen, 100MMF-vs-Veh, 7 h",1.59
same,FC Cat 1416429_PM_a_at,"spleen, 100MMF-vs-Veh, 7 h",1.51
same,FC Ccl6 (1420249_PM_s_at),"spleen, 100MMF-vs-Veh, 7 h",1.57
same,FC Cdyl 1418070_PM_at,"spleen, 100MMF-vs-Veh, 7 h",1.73
same,FC Cenpa 1441864_PM_x_at,"spleen, 100MMF-vs-Veh, 7 h",1.86
same,FC Chic2 1429050_PM_at,"spleen, 100MMF-vs-Veh, 7 h",1.67
same,FC Cno 1459783_PM_s_at,"spleen, 100MMF-vs-Veh, 7 h",1.58
same,FC Cpt1a 1434866_PM_x_at,"spleen, 100MMF-vs-Veh, 7 h",1.54
same,FC Cpt1a 1438156_PM_x_at,"spleen, 100MMF-vs-Veh, 7 h",1.52
same,FC Cul4a 1451971_PM_at,"spleen, 100MMF-vs-Veh, 7 h",1.71
same,FC Cycs /// Gm10053 1456071_PM_a_at,"spleen, 100MMF-vs-Veh, 7 h",1.64
same,FC D030056L22Rik 1455384_PM_x_at,"spleen, 100MMF-vs-Veh, 7 h",1.60
same,FC Dck 1439012_PM_a_at,"spleen, 100MMF-vs-Veh, 7 h",1.59
same,FC Dck 1449176_PM_a_at,"spleen, 100MMF-vs-Veh, 7 h",1.89
same,FC Dctn6 1416499_PM_a_at,"spleen, 100MMF-vs-Veh, 7 h",1.53
same,FC Dennd4a 1435975_PM_at,"spleen, 100MMF-vs-Veh, 7 h",1.71
same,FC Ell2 1450744_PM_at,"spleen, 100MMF-vs-Veh, 7 h",1.58
same,FC Elmo1 1424523_PM_at,"spleen, 100MMF-vs-Veh, 7 h",1.52
same,FC Gclm 1439050_PM_at,"spleen, 100MMF-vs-Veh, 7 h",1.99
